From patent US10329243B2, “Biphenyl derivative and uses thereof” (XI'AN LIBANG PHARMACEUTICAL CO., LTD, priority 2015, dated 2019)

Legend:
Type in all cases: in vivo, SD rats
[1] = test system: TNF-α; assay: Determination of TNF-α in brain tissue homogenate, permanent cerebral ischemia model
Protocol: (§1) Rats were intraperitoneally injected with 10% chloral hydrate 350 mg/kg after anesthesia and opened up at the center of the neck in accordance with the Zea Longa modified method. The right common carotid artery was separated, and the right external carotid artery branches was ligated. A small opening was made at the distal end of the external carotid artery, and a previously prepared thread was inserted through the common carotid artery and the external carotid artery bifurcation into the internal carotid artery, till the anterior end of the middle cerebral artery, with an immersed depth of 18 to 19 mm. The thread was then secured, and the wound was sutured layer by layer. After the operation, the rats were placed in a clean incubator to wake up. […] The sham operation group, the permanent cerebral ischemia model group, and the Example groups were prepared strictly according to the requirements of the cerebral ischemic reperfusion model, while in the sham operation group the thread was put only into the external carotid artery. The animals were allowed to eat and drink freely after waking up. The sham operation group, the permanent cerebral ischemia model group, and the Example groups were administered intravenously the aqueous solution of the biphenyl derivatives in PEG400 at 40 mg/kg (40 mg/kg means that 40 mg of the test compound per kg of the body weight of rats) 30 min before insertion of thread and 12 h after embolism, respectively. The sham operation group and the permanent cerebral ischemia model group were injected with the same amount of blank PEG400 aqueous solution at the same time point.
(§2) 24 hours after the embolism, 8 rats in each group were sacrificed by decapitation, the brain was removed, rinsed with PBS (pH 7.4) at −20°i for 20 min, evenly sliced (with a thickness of 2 mm), stained in a 2% TTC solution at 37°% in the dark for 30 min, fixed in 10% formalin for 24 h, and photographs were taken to analyze the infarct volume. A mixture of femoral arterial and venous blood was drawn from another 8 rats in each group under anesthesia, placed in a low temperature centrifuge at 4° C., centrifuged at 3500 r/min for 20 min, and the supernatant was stored in a refrigerator at −20° C. ready for SOD and MDA detection. After the blood was drawn, a perfusion needle was insert through the apex to the ascending aorta, and saline at 4° C. was rapid infused until the effluent became clear, followed by 4% paraformaldehyde phosphate buffer perfusion for fixation; the brain was removed by craniotomy, and brain tissues 2 mm in front of and behind the optic chiasma were taken and fixed, dehydrated, rendered transparent, impregnated in wax, and embedded. Brain continuous coronary tissue pathological sections were consecutively cut for later use. The remaining 8 rats in each group were sacrificed, brains were removed, the ischemic brain hemispheres were immediately taken on an ice tray, and 10% brain tissue homogenate was prepared for the detection of IL-1β and TNF-α.
(§3) Brain tissue homogenate was hypothermally centrifuged at 3000 rpm for 15 min, the supernatant was taken, and IL-1β and TNF-α were determined in strict accordance with instructions of the kits.

[2] = test system: IL-1β; assay: Determination of IL-1β in brain tissue homogenate, cerebral ischemic reperfusion MCAO model
Protocol: as §1, with “group, the ischemic reperfusion group, and” for “group, the permanent cerebral ischemia model group, and”, “waking up. After 2 h, the thread was pulled out to achieve reperfusion. The sham” for “waking up. The sham”, “min before reperfusion and 12” for “min before insertion of thread and 12”, “h after reperfusion, respectively. The” for “h after embolism, respectively. The”, “and the ischemic reperfusion group were” for “and the permanent cerebral ischemia model group were”
as §2, with “reperfusion,” for “the embolism,”, “−20° i” for “−20°i”
as §3

[3] = test system: SOD; assay: SOD determination, permanent cerebral ischemia model
Protocol: as §1, §2
(§4) SOD and MDA were determined strictly in accordance with instructions of the kit.

[4] = test system: TNF-α; assay: Determination of TNF-α in brain tissue homogenate, cerebral ischemic reperfusion MCAO model
Protocol: as §1, with “group, the ischemic reperfusion group, and” for “group, the permanent cerebral ischemia model group, and”, “waking up. After 2 h, the thread was pulled out to achieve reperfusion. The sham” for “waking up. The sham”, “min before reperfusion and 12” for “min before insertion of thread and 12”, “h after reperfusion, respectively. The” for “h after embolism, respectively. The”, “and the ischemic reperfusion group were” for “and the permanent cerebral ischemia model group were”
as §2, with “reperfusion,” for “the embolism,”, “−20° i” for “−20°i”
as §3

[5] = test system: IL-1β; assay: Determination of IL-1β in brain tissue homogenate, permanent cerebral ischemia model
Protocol: as §1, §2, §3

[6] = test system: SOD; assay: SOD determination, cerebral ischemic reperfusion MCAO model
Protocol: as §1, with “group, the ischemic reperfusion group, and” for “group, the permanent cerebral ischemia model group, and”, “waking up. After 2 h, the thread was pulled out to achieve reperfusion. The sham” for “waking up. The sham”, “min before reperfusion and 12” for “min before insertion of thread and 12”, “h after reperfusion, respectively. The” for “h after embolism, respectively. The”, “and the ischemic reperfusion group were” for “and the permanent cerebral ischemia model group were”
as §2, with “reperfusion,” for “the embolism,”, “−20° i” for “−20°i”
as §4

[7] = test system: rats with cerebral ischemic reperfusion injury; assay: Relative infarct volume (TTC, imageJ), cerebral ischemic reperfusion MCAO model
Protocol: as §1, with “group, the ischemic reperfusion group, and” for “group, the permanent cerebral ischemia model group, and”, “waking up. After 2 h, the thread was pulled out to achieve reperfusion. The sham” for “waking up. The sham”, “min before reperfusion and 12” for “min before insertion of thread and 12”, “h after reperfusion, respectively. The” for “h after embolism, respectively. The”, “and the ischemic reperfusion group were” for “and the permanent cerebral ischemia model group were”
as §2, with “reperfusion,” for “the embolism,”, “−20° i” for “−20°i”
The infarct area in each brain section was analyzed and quantified by the imageJ image software, and the ratio of cerebral infarction volume in the overall brain volume was calculated.

[8] = permanent cerebral ischemia model rats, 40 mg/kg intravenously, 10% brain tissue homogenate, 24 h after the embolism
[9] = ischemic reperfusion MCAO rats, 40 mg/kg intravenously, 10% brain tissue homogenate, 24 h after reperfusion
[10] = permanent cerebral ischemia model rats, 40 mg/kg intravenously, serum, 24 h after the embolism
[11] = ischemic reperfusion MCAO rats, 40 mg/kg intravenously 30 min before and 12 h after reperfusion, serum, 24 h after reperfusion
[12] = ischemic reperfusion MCAO rats, 40 mg/kg intravenously 30 min before and 12 h after reperfusion, 24 h after reperfusion
[13] = permanent cerebral ischemia model rats, edaravone 3 mg/kg
[14] = ischemic reperfusion rat model, edaravone 3 mg/kg

Row | Structure (SMILES) | TNF-α content [1, 8] [ng/mL] | IL-1β content [2, 9] [ng/mL] | SOD ACTIVITY (U/mL) [3, 10] [U/mL] | TNF-α content [4, 9] [ng/mL] | IL-1β content [5, 8] [ng/mL] | SOD ACTIVITY (U/mL) [6, 11] [U/mL] | Relative Brain infarction volume (%) [7, 12] [%] | also measured
1 | CCCc1cc(-c2cc(CCC)c(O)c(CCC)c2)cc(CCC)c1O [Example 7 group, 4,4′-dihydroxy-3,3′,5,5′-tetrapropylbiphenyl] | 4.26 ± 0.40 | 0.63 ± 0.08 | 98.28 ± 3.18 | 4.32 ± 0.61 | 0.57 ± 0.08 | 94.51 ± 2.19 | 19.29 ± 3.54 | 
2 | CC(C)c1cc(-c2cc(C(C)C)c(OC(=O)CCC(=O)O)c(C(C)C)c2)cc(C(C)C)c1O [Example 5 group, [4-(4′-hydroxy-3,3′,5,5′-tetraisopropylbiphenyl)oxy]-4-carbonyl butyric acid] | 5.23 ± 0.48 | 0.74 ± 0.09 | 95.31 ± 4.11 | 5.01 ± 0.59 | 0.72 ± 0.11 | 95.01 ± 3.22 | 23.55 ± 5.67 | 
3 | CC(C)c1cc(-c2cc(C(C)C)c(Cl)c(C(C)C)c2)cc(C(C)C)c1O [Example 9 group, 4-chloro-4′-hydroxy-3,3′,5,5′-tetraisopropylbiphenyl] |  |  |  |  |  |  |  | TNF-α content ([1]; rat, in vivo, iv, 40 mg/kg): 5.17 ± 0.40 ng/mL; IL-1β content ([2]; rat, in vivo, iv, 40 mg/kg): 0.63 ± 0.07 ng/mL; SOD ACTIVITY (U/mL) ([3]; rat, in vivo, iv, 40 mg/kg): 93.62 ± 2.73 U/mL; TNF-α content ([4]; rat, in vivo, iv, 40 mg/kg): 5.02 ± 0.39 ng/mL; IL-1β content ([5]; rat, in vivo, iv, 40 mg/kg): 0.62 ± 0.12 ng/mL; SOD ACTIVITY (U/mL) ([6]; rat, in vivo, iv, 40 mg/kg): 92.26 ± 2.96 U/mL; Relative Brain infarction volume (%) ([7]; rat, in vivo, iv, 40 mg/kg): 24.74 ± 6.13 %
4 | CC1=NN(c2ccccc2)C(=O)C1 [Edaravone injection, edaravone, reference compound] |  |  |  |  |  |  |  | TNF-α content [1, 13]: 5.53 ± 0.54 ng/mL; IL-1β content [2, 14]: 0.75 ± 0.05 ng/mL; SOD ACTIVITY (U/mL) [3, 13]: 90.62 ± 3.81 U/mL; TNF-α content [4, 14]: 5.14 ± 0.44 ng/mL; IL-1β content [5, 13]: 0.76 ± 0.04 ng/mL; SOD ACTIVITY (U/mL) [6, 14]: 88.16 ± 3.99 U/mL; Relative Brain infarction volume (%) [7, 14]: 29.31 ± 3.95 %
5 | CC(=O)OC(C)Oc1c(C(C)C)cc(-c2cc(C(C)C)c(O)c(C(C)C)c2)cc1C(C)C (stereo not drawn) [Example 12 group, Ethyl 1-(4′-hydroxy-3,3′,5,5′-tetraisopropylbiphenyl-4-oxo)acetate] | 5.38 ± 0.59 | 0.74 ± 0.06 | 91.25 ± 3.84 | 4.95 ± 0.67 | 0.75 ± 0.04 | 92.39 ± 5.27 | 25.54 ± 3.29 | 
6 | CC(C)c1cc(-c2cc(C(C)C)c(OC=O)c(C(C)C)c2)cc(C(C)C)c1O [Example 10 group] | 5.05 ± 0.54 | 0.67 ± 0.05 | 94.08 ± 2.83 | 4.68 ± 0.61 | 0.66 ± 0.06 | 95.16 ± 3.88 | 23.91 ± 5.44 | 
